Laboratory results reported in US20210395256A1, “TYROSINE KINASE INHIBITORS, COMPOSITIONS AND METHODS THERE OF” (Betta Pharmaceuticals Co., Ltd., priority 2018, published 2021).
pIC50: −log10 of the molar value.

Legend:
[1] = target: T1, CYP2C8 (Homo sapiens, UniProt P10632); experiment: Cytochrome P450 inhibition, CYP2C8; assay type: in vitro ADME; settings: probe Paclitaxel (5 μM); 10 μM compound, human liver microsomes, substrate Paclitaxel; read-out: Inhibition percentage CYP2C8 (Paclitaxel)
T1 construct: from tissue; host or cells: human liver microsomes
T1 sequence (P10632 1-490): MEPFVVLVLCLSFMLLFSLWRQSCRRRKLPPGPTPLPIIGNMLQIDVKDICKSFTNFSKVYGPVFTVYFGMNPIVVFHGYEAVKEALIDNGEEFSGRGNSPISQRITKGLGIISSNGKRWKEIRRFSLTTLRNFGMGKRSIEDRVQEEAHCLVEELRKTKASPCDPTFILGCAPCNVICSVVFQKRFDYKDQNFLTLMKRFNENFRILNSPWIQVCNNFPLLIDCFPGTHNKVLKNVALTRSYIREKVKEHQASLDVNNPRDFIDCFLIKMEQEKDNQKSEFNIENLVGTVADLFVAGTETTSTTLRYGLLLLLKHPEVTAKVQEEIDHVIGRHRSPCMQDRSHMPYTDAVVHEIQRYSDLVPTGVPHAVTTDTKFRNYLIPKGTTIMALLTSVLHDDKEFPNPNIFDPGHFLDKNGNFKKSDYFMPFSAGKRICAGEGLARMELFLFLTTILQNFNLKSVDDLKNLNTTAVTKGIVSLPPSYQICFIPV
Experimental: (§1) Example 205 Cytochrome P450 Measurements
(§2) The cytochrome P450 was measured as the following procedure:
(§3) 1) A master solution containing phosphate buffer, ultra-pure H2O, MgCl2 solution and human liver microsomes was made according to Table 17, and then 1 μL of 2 mM of compound solution or 1 μL of DMSO (as without inhibitor control) was added to the above master solution. The final concentration of test compounds or control compounds was 10 μM.
3) For CYP2C8 inhibition, 1 μL of specific drug substrate (Paclitaxel: 1 mM) was added at the final concentration of 5 μM to the above solution.
(§4) 8) The mixture was pre-warmed at 37° C. for 5 min. The reaction was started by the addition of 20 μL of 10 mM NADPH solution at the final concentration of 1 mM and carried out at 37° C.
(§5) 9) The reaction was stopped by addition of 300 μL of cold quench solution (methanol containing internal standards (1S, 500 nM Labetalol, 100 nM Alprazolam and 2 μM Ketoprofen) at the designated time points (Phenacetin: 20 min; Paclitaxel: 10 min; Tolbutamide: 20 min; (s)-Mephenytoin: 20 min; Midazolam: 5 min; Testosterone: 10 min). Samples were vortexed for 5 minutes and centrifuged at 3220 g for 40 minutes at 4° C. And then 100 μL of the supernatant was transferred to a new 96-well plate with 100 μL or 200 μL water (depends on the LC-MS signal response and peak shape) for LC-MS/MS analysis.
(§6) All experiments were performed in duplicates.
(§7) Inhibition percentages for compounds against CYP1A2, CYP2C8, CYP2C9, CYP2C19, and […]

[2] = target: T2, CYP2C9 (Homo sapiens, UniProt P11712); experiment: Cytochrome P450 inhibition, CYP2C9; assay type: in vitro ADME; settings: probe Tolbutamide (200 μM); 10 μM compound, human liver microsomes, substrate Tolbutamide; read-out: Inhibition percentage CYP2C9 (Tolbutamide)
T2 construct: from tissue; host or cells: human liver microsomes
T2 sequence (P11712 whole entry): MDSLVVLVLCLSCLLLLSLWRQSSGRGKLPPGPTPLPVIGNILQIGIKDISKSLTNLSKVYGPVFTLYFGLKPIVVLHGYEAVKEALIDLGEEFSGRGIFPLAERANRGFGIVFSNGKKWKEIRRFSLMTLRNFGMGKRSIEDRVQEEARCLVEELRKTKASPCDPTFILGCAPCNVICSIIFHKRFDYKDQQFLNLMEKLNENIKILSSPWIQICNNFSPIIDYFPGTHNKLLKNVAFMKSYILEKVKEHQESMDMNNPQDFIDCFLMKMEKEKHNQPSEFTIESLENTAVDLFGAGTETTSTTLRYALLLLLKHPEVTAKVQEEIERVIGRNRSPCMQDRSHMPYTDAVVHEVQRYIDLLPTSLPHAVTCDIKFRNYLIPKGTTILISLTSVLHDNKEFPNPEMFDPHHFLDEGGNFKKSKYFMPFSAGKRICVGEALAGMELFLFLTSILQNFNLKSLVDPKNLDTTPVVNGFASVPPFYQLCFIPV
Experimental: as §1, §2, §3
4) For CYP2C9 inhibition, 1 μL of specific drug substrate (Tolbutamide: 40 mM) was added at the final concentration of 200 μM to the above solution.
as §4, §5, §6, §7

[3] = target: T3, Ba/F3-ETV6-NTRK3 (Homo sapiens, UniProt Q16288); experiment: Ba/F3-ETV6-NTRK3 cells proliferation assay; assay type: cell-based; settings: 72 h, CellTiter Glo
T3 construct: Ba/F3 cells with TPM3-NTRK1 or ETV6-NTRK3 fusion mutation gene stably overexpressed named Ba/F3-TPM3-NTRK1 and Ba/F3-ETV6-NTRK3; fused on or other part: P41212 (Transcription factor ETV6)
T3 sequence (Q16288 whole entry, the tested form may be a part): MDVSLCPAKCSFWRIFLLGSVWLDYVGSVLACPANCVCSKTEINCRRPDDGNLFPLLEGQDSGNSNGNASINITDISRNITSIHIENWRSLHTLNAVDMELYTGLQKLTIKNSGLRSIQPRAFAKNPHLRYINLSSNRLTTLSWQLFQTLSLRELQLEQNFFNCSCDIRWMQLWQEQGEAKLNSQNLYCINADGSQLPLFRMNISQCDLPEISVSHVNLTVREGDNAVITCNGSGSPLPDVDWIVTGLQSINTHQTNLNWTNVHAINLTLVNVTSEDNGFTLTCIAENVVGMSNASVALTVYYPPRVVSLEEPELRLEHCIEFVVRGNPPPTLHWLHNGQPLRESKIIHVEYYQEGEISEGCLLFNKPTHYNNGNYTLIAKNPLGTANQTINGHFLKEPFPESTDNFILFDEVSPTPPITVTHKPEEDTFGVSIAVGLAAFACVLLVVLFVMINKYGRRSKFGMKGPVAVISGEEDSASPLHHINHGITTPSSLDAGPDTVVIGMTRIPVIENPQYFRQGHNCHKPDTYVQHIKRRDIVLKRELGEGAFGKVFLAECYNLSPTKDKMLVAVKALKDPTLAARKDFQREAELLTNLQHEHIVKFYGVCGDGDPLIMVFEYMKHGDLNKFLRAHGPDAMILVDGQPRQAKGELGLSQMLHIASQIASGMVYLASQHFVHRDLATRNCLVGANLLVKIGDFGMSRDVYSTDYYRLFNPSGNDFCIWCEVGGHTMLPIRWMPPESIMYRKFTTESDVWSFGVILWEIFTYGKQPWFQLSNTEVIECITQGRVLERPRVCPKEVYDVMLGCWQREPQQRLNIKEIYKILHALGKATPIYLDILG
Experimental: Example 202 Ba/F3-TPM3-NTRK1 and Ba/F3-ETV6-NTRK3 cells proliferation assay
Cell line: Ba/F3 cells with TPM3-NTRK1 or ETV6-NTRK3 fusion mutation gene stably overexpressed named Ba/F3-TPM3-NTRK1 and Ba/F3-ETV6-NTRK3.
RPMI 1640 and 10% FBS and 1% PS and 2 ug/mL puromycin.
b) Collect cell to a 15 mL centrifuged tube, centrifuge at 1000 rpm for 5 min. Discard the supernatant, count, and make the cell density at 1.49×10^4 cells/mL, then place it in a 37° C., 5% CO2 incubator.
a) The test compound (20 mM stock solution) was diluted to 60 μM with 100% DMSO as starting concentration then 3-fold serial diluted with “9+0” concentrations. in a 96-well dilution plate (Thermo, Cat. No. 249944);
b) The above compound solution was diluted 1:20 times with culture medium to prepare a 10 fold working solution;
a) Take cells in log phase growth, centrifuge at 1000 rpm for 5 min, then resuspend the cells with culture medium, then count cells;
b) Cells were seeded to 96-well cell culture plate with density at 2000 cells/well;
a) Compounds prepared at step 2 were added to cell plate with 15 μL per well, the final concentrations were 300, 100, 33.33, 11.11, 3.70, 1.23, 0.41, 0.14, 0.05 and 0 nM, and the final concentration of DMSO was 0.5%. The blank control well was a culture medium (0.5% DMSO);
c) The cells were incubated for an additional 72 h in the incubator.
a) Remove the 96-well cell culture plate and add 50 μl of CTG reagent (CellTiter Glo kit, promega, Cat #G7573).
b) Plate was shaked for 2 min and then let it cool for 30 min at room temperature.
c) The Luminescence signal value was read using a PerkinElmer reader.
Experimental Data Analysis
Data were analyzed using GraphPad Prism 6.0 software to obtain a fitted curve of compound activity.
Fit the Compound IC50 from non-linear regression equation:
Y=Bottom+(Top-Bottom)/(1+10^((Log IC50-X)×HillSlope));
X: The log of the concentration of the compound; Y: Luminescence value.

Q: How did the inhibition at 10 min, 10 µM [1] turn out when `Cc1nnc(-c2cnn3ccc(N4CCCC4c4cc(F)ccc4F)nc23)[nH]1` (centres unmarked) [Comparative compound A, 5-[2-(2,5-Difluorophenyl)pyrrolidin-1-yl]-3-(5-methyl-1H-1,2,4-triazol-3-yl)pyrazolo[1,5-a]pyrimidine, reference compound] was run?
A: 19.3%

Q: And the inhibition at 20 min, 10 µM [2]?
A: 25.4%

Q: `C[C@H](O)c1nnc(-c2cnn3ccc(N4CCC[C@@H]4c4cc(F)ccc4F)nc23)[nH]1` [Compound 4, (S)-1-(5-(5-((R)-2-(2,5-difluorophenyl)pyrrolidin-1-yl)pyrazolo[1,5-a]pyrimidin-3-yl)-4H-1,2,4-triazol-3-yl)ethan-1-ol] was tested. Which pIC50 [3] did it give?
A: 8.56

Q: What about the inhibition at 10 min, 10 µM [1] of the same compound?
A: 18.2%

Q: And the inhibition at 20 min, 10 µM [2]?
A: 5.96%

Q: What does the source list for `CC(C)(O)c1nnc(-c2cnn3ccc(N4CCC[C@@H]4c4cc(F)ccc4F)nc23)[nH]1` [Compound 7, (R)-2-(5-(5-(2-(2,5-difluorophenyl)pyrrolidin-1-yl)pyrazolo[1,5-a]pyrimidin-3-yl)-4H-1,2,4-triazol-3-yl)propan-2-ol]?
A: pIC50 [3]: 8.25; inhibition at 10 min, 10 µM [1]: 1.37%; inhibition at 20 min, 10 µM [2]: 22.7%

Q: How did the pIC50 [3] turn out when `C[C@H](N)c1nnc(-c2cnn3ccc(N4CCC[C@@H]4c4cc(F)ccc4F)nc23)[nH]1` [Compound 11, (S)-1-(5-(5-((R)-2-(2,5-difluorophenyl)pyrrolidin-1-yl)pyrazolo[1,5-a]pyrimidin-3-yl)-4H-1,2,4-triazol-3-yl)ethan-1-amine] was run?
A: 8.24

Q: For `OC(c1nnc(-c2cnn3ccc(N4CCC[C@@H]4c4cc(F)ccc4F)nc23)[nH]1)C(F)(F)F` (stereo partly drawn) [Compound 47, 1-(5-(5-((R)-2-(2,5-difluorophenyl)pyrrolidin-1-yl)pyrazolo[1,5-a]pyrimidin-3-yl)-4H-1,2,4-triazol-3-yl)-2,2,2-trifluoroethan-1-ol], which inhibition at 10 min, 10 µM [1] is on record?
A: 32.8%

Q: And the inhibition at 20 min, 10 µM [2]?
A: 50.4%
